Assay results reported in ChEMBL document CHEMBL5331051, “Cationic, amphipathic small molecules based on a triazine-piperazine-triazine scaffold as a new class of antimicrobial agents” (Eur J Med Chem, 2022).
Active and inactive are the calls of the source. The calls are words filed in the database; no cut-off is given here.

Tests used:
Escherichia coli [1] = test: Antibacterial activity against Escherichia coli KCTC 1682 strain assessed as bacterial growth inhibition measured after 6 hrs in presence of proteinase K by radial diffusion assay; assay type: functional, organism-based
Pseudomonas aeruginosa [2] = test: Antibacterial activity against multidrug-resistant Pseudomonas aeruginosa CCARM 2095 strain assessed as fractional inhibitory concentration index in presence of chloramphenicol by checkerboard assay; assay type: functional
Staphylococcus aureus [3] = test: Additive antibacterial activity against methicillin-resistant Staphylococcus aureus CCARM 3089 strain assessed as ciprofloxacin MIC by checkerboard assay; assay type: functional
Pseudomonas aeruginosa [4] = test: Antibacterial activity against multidrug-resistant Pseudomonas aeruginosa CCARM 2095 strain assessed as fractional inhibitory concentration in presence of chloramphenicol by checkerboard assay; assay type: functional
Staphylococcus aureus [5] = test: Additive antibacterial activity against methicillin-resistant Staphylococcus aureus CCARM 3089 strain assessed as bacterial growth inhibition in presence of ciprofloxacin by checkerboard assay; assay type: functional
Pseudomonas aeruginosa [6] = test: Additive antibacterial activity against multidrug-resistant Pseudomonas aeruginosa CCARM 2095 strain assessed as oxacillin fractional inhibitory concentration by checkerboard assay; assay type: functional
Pseudomonas aeruginosa [7] = test: Additive antibacterial activity against multidrug-resistant Pseudomonas aeruginosa CCARM 2095 strain assessed as fractional inhibitory concentration in presence of oxacillin by checkerboard assay; assay type: functional
Cell membrane = test: Induction of cell membrane depolarization in Staphylococcus aureus assessed as fluorescence intensity at 2 to 16 times MIC by DiSC3(5) dye based fluorescence assay; assay type: subcellular
Pseudomonas aeruginosa [8] = test: Additive antibacterial activity against multidrug-resistant Pseudomonas aeruginosa CCARM 2095 strain assessed as fractional inhibitory concentration index in presence of oxacillin by checkerboard assay; assay type: functional
Pseudomonas aeruginosa [9] = test: Antibacterial activity against multidrug-resistant Pseudomonas aeruginosa CCARM 2095 strain assessed as bacterial growth inhibition in presence of chloramphenicol by checkerboard assay; assay type: functional
Pseudomonas aeruginosa [10] = test: Additive antibacterial activity against multidrug-resistant Pseudomonas aeruginosa CCARM 2095 strain assessed as Oxacillin MIC by checkerboard assay; assay type: functional
Pseudomonas aeruginosa [11] = test: Additive antibacterial activity against multidrug-resistant Pseudomonas aeruginosa CCARM 2095 strain assessed as bacterial growth inhibition in presence of oxacillin by checkerboard assay; assay type: functional
Escherichia coli [12] = test: Antibacterial activity against Escherichia coli assessed as bacterial growth inhibition measured at 18 to 24 hrs in presence of CDFA based microdilution assay; assay type: functional; conditions: time 18-24 hrs
Staphylococcus aureus [13] = test: Potency index, ratio of melittin MIC to test compound MIC against methicillin-resistant Staphylococcus aureus CCARM 3090 assessed as bacterial growth inhibition measured at 18 to 24 hrs by microdilution assay; assay type: functional; conditions: time 18-24 hrs
Staphylococcus aureus [14] = test: Synergistic antibacterial activity against methicillin-resistant Staphylococcus aureus CCARM 3089 strain assessed as fractional inhibitory concentration in presence of chloramphenicol by checkerboard assay; assay type: functional
Staphylococcus aureus [15] = test: Synergistic antibacterial activity against multidrug-resistant Staphylococcus aureus CCARM 3089 strain assessed as fractional inhibitory concentration index in presence of chloramphenicol by checkerboard assay; assay type: functional
Staphylococcus aureus [16] = test: Synergistic antibacterial activity against methicillin-resistant Staphylococcus aureus CCARM 3089 strain assessed as bacterial growth inhibition in presence of chloramphenicol by checkerboard assay; assay type: functional
Pseudomonas aeruginosa [17] = test: Synergistic bactericidal activity against multidrug-resistant Pseudomonas aeruginosa CCARM 2095 at 0.5 times MIC measured after 60 mins in presence of 0.5 times MIC of oxacillin by time-kill kinetics assay; assay type: functional, organism-based
Pseudomonas aeruginosa [18] = test: Synergistic bactericidal activity against multidrug-resistant Pseudomonas aeruginosa CCARM 2095 at 0.5 times MIC measured after 60 mins in presence of 0.5 times MIC of chloramphenicol by time-kill kinetics assay; assay type: functional, organism-based
Pseudomonas aeruginosa [19] = test: Antibiofilm activity against multidrug-resistant Pseudomonas aeruginosa assessed as bacterial growth inhibition at 1 ug/ml relative to control; assay type: functional
Staphylococcus aureus [20] = test: Synergistic antibacterial activity against multidrug-resistant Staphylococcus aureus CCARM 3089 strain assessed as chloramphenicol fractional inhibitory concentration by checkerboard assay; assay type: functional
Pseudomonas aeruginosa [21] = test: Antibiofilm activity against multidrug-resistant Pseudomonas aeruginosa assessed as bacterial growth inhibition at 8 ug/ml relative to control; assay type: functional
Pseudomonas aeruginosa [22] = test: Bacteriostatic activity against multidrug-resistant Pseudomonas aeruginosa CCARM 2095 measured after 24 hrs by time-kill kinetics assay; assay type: functional, organism-based
Staphylococcus aureus [23] = test: Synergistic antibacterial activity against methicillin-resistant Staphylococcus aureus CCARM 3089 strain assessed as chloramphenicol MIC by checkerboard assay; assay type: functional
Pseudomonas aeruginosa [24] = test: Bactericidal activity against multidrug-resistant Pseudomonas aeruginosa CCARM 2095 measured after 24 hrs by time-kill kinetics assay; assay type: functional, organism-based
Staphylococcus aureus [25] = test: Potency index, ratio of melittin MIC to test compound MIC against methicillin-resistant Staphylococcus aureus CCARM 3089 assessed as bacterial growth inhibition measured at 18 to 24 hrs by microdilution assay; assay type: functional; conditions: time 18-24 hrs
Staphylococcus aureus [26] = test: Additive antibacterial activity against multidrug-resistant Staphylococcus aureus CCARM 3089 strain assessed as chloramphenicol fractional inhibitory concentration by checkerboard assay; assay type: functional
Staphylococcus aureus [27] = test: Potency index, ratio of melittin MIC to test compound MIC against methicillin-resistant Staphylococcus aureus CCARM 3095 assessed as bacterial growth inhibition measured at 18 to 24 hrs by microdilution assay; assay type: functional; conditions: time 18-24 hrs
[28] = Drug localization in Escherichia coli KCTC 1682 cytoplasm incubated for 0.5 hrs by CDFA based confocal laser scanning microscopic analysis; assay type: ADME, subcellular
Staphylococcus aureus [29] = test: Additive antibacterial activity against methicillin-resistant Staphylococcus aureus CCARM 3089 strain assessed as bacterial growth inhibition in presence of oxacillin by checkerboard assay; assay type: functional
Staphylococcus aureus [30] = test: Antibacterial activity against multidrug-resistant Staphylococcus aureus CCARM 3089 strain assessed as ciprofloxacin fractional inhibitory concentration by checkerboard assay; assay type: functional
Pseudomonas aeruginosa [31] = test: Additive antibacterial activity against multidrug-resistant Pseudomonas aeruginosa CCARM 2095 strain assessed as bacterial growth inhibition in presence of ciprofloxacin by checkerboard assay; assay type: functional
Pseudomonas aeruginosa [32] = test: Additive antibacterial activity against multidrug-resistant Pseudomonas aeruginosa CCARM 2095 strain assessed as ciprofloxacin fractional inhibitory concentration by checkerboard assay; assay type: functional
Staphylococcus aureus [33] = test: Additive antibacterial activity against methicillin-resistant Staphylococcus aureus CCARM 3089 strain assessed as oxacillin MIC by checkerboard assay; assay type: functional
Pseudomonas aeruginosa [34] = test: Additive antibacterial activity against multidrug-resistant Pseudomonas aeruginosa CCARM 2095 strain assessed as chloramphenicol fractional inhibitory concentration by checkerboard assay; assay type: functional
Pseudomonas aeruginosa [35] = test: Additive antibacterial activity against multidrug-resistant Pseudomonas aeruginosa CCARM 2095 strain assessed as fractional inhibitory concentration in presence of ciprofloxacin by checkerboard assay; assay type: functional
Pseudomonas aeruginosa [36] = test: Additive antibacterial activity against multidrug-resistant Pseudomonas aeruginosa CCARM 2095 strain assessed as chloramphenicol MIC by checkerboard assay; assay type: functional
Pseudomonas aeruginosa [37] = test: Additive antibacterial activity against multidrug-resistant Pseudomonas aeruginosa CCARM 2095 strain assessed as fractional inhibitory concentration index in presence of ciprofloxacin by checkerboard assay; assay type: functional
Pseudomonas aeruginosa [38] = test: Additive antibacterial activity against multidrug-resistant Pseudomonas aeruginosa CCARM 2095 strain assessed as bacterial growth inhibition in presence of chloramphenicol by checkerboard assay; assay type: functional
Pseudomonas aeruginosa [39] = test: Additive antibacterial activity against multidrug-resistant Pseudomonas aeruginosa CCARM 2095 strain assessed as fractional inhibitory concentration index in presence of chloramphenicol by checkerboard assay; assay type: functional
Staphylococcus aureus [40] = test: Antibacterial activity against multidrug-resistant Staphylococcus aureus CCARM 3089 strain assessed as fractional inhibitory concentration by checkerboard assay; assay type: functional

Row | Compound | Activity (Escherichia coli [1]) | FIC (Pseudomonas aeruginosa [6]) | FIC (Pseudomonas aeruginosa [7]) | Activity (Cell membrane) | fractional inhibitory concentration index (FICI) (Pseudomonas aeruginosa [8]) | MIC (Pseudomonas aeruginosa [10]) [µg/mL] | MIC (Pseudomonas aeruginosa [11]) [µg/mL] | Ratio (Staphylococcus aureus [13]) | FIC (Staphylococcus aureus [14]) | fractional inhibitory concentration index (FICI) (Staphylococcus aureus [15]) | MIC (Staphylococcus aureus [16]) [µg/mL] | FIC (Staphylococcus aureus [20]) | MIC (Staphylococcus aureus [23]) [µg/mL] | Ratio (Staphylococcus aureus [25]) | FIC (Staphylococcus aureus [26]) | Ratio (Staphylococcus aureus [27]) | also measured
1 | NCCNc1nc(NCCN)nc(N2CC(Cc3ccccc3)N(c3nc(NCCN)nc(NCCN)n3)CC2Cc2ccccc2)n1 (stereo not drawn) | Active | 0.5 | 0.5 | inactive | 1 | 512 | 8 | – | – | – | – | – | – | – | – | – | fractional inhibitory concentration index (FICI) (Pseudomonas aeruginosa [2]): 1.25; MIC (Staphylococcus aureus [3]): 128 µg/mL; FIC (Pseudomonas aeruginosa [4]): 1 µg/mL; MIC (Staphylococcus aureus [5]): 16 µg/mL; MIC (Pseudomonas aeruginosa [9]): 16 µg/mL
2 | NCCN(CCN)c1nc(NCc2ccccc2)nc(N2CC(Cc3ccccc3)N(c3nc(NCc4ccccc4)nc(N(CCN)CCN)n3)CC2Cc2ccccc2)n1 (stereo not drawn) | Active | – | – | inactive | – | – | – | 2 | 0.5 | 0.5 | 2 | 0.25 | 128 | 2 | 0.25 | 2 | MIC (Escherichia coli [12]): 8 µg/mL; Activity (Pseudomonas aeruginosa [17]): Active; Activity (Pseudomonas aeruginosa [18]): Active; inhibition at 1 µg/mL (Pseudomonas aeruginosa [19]): 50%; inhibition at 8 µg/mL (Pseudomonas aeruginosa [21]): 100%; Activity (Pseudomonas aeruginosa [22]): inactive; Activity (Pseudomonas aeruginosa [24]): inactive; Drug uptake [28]: Active
3 | NCCCN(CCCN)c1nc(NCc2ccccc2)nc(N2CC(Cc3ccccc3)N(c3nc(NCc4ccccc4)nc(N(CCCN)CCCN)n3)CC2Cc2ccccc2)n1 (stereo not drawn) | Active | – | – | inactive | – | – | – | 2 | 0.5 | 0.5 | 1 | 0.25 | 128 | 2 | 0.25 | 2 | –
4 | NCCCCNc1nc(NCCCCN)nc(N2CC(Cc3ccccc3)N(c3nc(NCCCCN)nc(NCCCCN)n3)CC2Cc2ccccc2)n1 (stereo not drawn) | Active | – | – | inactive | – | – | – | – | – | – | – | – | – | – | – | – | –
5 | N=C(N)NCCNc1nc(NCCNC(=N)N)nc(N2CC(Cc3ccccc3)N(c3nc(NCCNC(=N)N)nc(NCCNC(=N)N)n3)CC2Cc2ccccc2)n1 (stereo not drawn) | Active | 0.25 | 0.5 | inactive | 0.75 | 256 | 16 | – | – | – | – | – | – | – | – | – | MIC (Staphylococcus aureus [29]): 4 µg/mL; FIC (Staphylococcus aureus [30]): 0.25; MIC (Pseudomonas aeruginosa [31]): 16 µg/mL; FIC (Pseudomonas aeruginosa [32]): 0.5; MIC (Staphylococcus aureus [33]): 128 µg/mL; FIC (Pseudomonas aeruginosa [34]): 0.25; FIC (Pseudomonas aeruginosa [35]): 0.5; MIC (Pseudomonas aeruginosa [36]): 256 µg/mL; fractional inhibitory concentration index (FICI) (Pseudomonas aeruginosa [37]): 1; MIC (Pseudomonas aeruginosa [38]): 8 µg/mL; fractional inhibitory concentration index (FICI) (Pseudomonas aeruginosa [39]): 0.75; FIC (Staphylococcus aureus [40]): 1
